Reference: patent publication US20140005103A1, “SULFONAMIDE DERIVATIVES AND METHODS OF USE THEREOF FOR IMPROVING THE PHARMACOKINETICS OF A DRUG” (Merck, Sharp & Dohme Corp., priority 2012, published 2014)

Target: T1, human CYP11B1 (Homo sapiens, UniProt P15538)
T1 construct: expressed in transfected cells
T1 sequence (P15538 25-503): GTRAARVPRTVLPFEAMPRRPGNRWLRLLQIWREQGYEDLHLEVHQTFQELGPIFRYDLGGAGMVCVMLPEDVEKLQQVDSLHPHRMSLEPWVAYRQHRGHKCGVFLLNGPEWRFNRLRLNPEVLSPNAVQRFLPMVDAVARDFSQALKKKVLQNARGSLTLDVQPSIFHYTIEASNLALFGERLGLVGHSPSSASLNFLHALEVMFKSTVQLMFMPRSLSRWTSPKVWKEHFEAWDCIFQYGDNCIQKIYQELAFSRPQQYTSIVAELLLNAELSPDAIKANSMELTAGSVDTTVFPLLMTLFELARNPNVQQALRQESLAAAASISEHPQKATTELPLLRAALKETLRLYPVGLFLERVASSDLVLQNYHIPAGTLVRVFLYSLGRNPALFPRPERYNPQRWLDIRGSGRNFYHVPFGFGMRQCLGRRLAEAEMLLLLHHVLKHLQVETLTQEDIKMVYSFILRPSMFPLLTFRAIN
Assay: IC50 vs CYP11B1 by cortisol synthesis in V79 cells
Type: cell-based
Settings: V79 cells expressing human CYP11B1, 1500 nM RSS, cortisol HTRF; test concentrations 0.5-10000 nM
Experimental: Determination of IC50 vs CYP11B1/CYP11B2 by Measurement of Cortisol/Aldosterone Synthesis
This assay was performed in a standard 384-well plate design using cultured V79 cells stably expressing human CYP11B1 or human CYP11B2. Test compounds at 10 concentrations (for example, 10000, 3333.3, 1111.1, 370.4, 123.5, 41.2, 13.7, 4.6, 1.5 and 0.5 nM) were added in 384-well plate after the cell-seeding procedure. The incubation substrate contains 1500 nM RSS for CYP11B1 assay/750 nM DOC for CYP11B2 assay. The
Cortisol/Aldosterone production of cell culture supernatant was determined by Cortisol/Aldosterone HTRF kit after for about 15 hours incubation at RT (protect from light). IC50 values were calculated from the percent inhibition observed for each test compound at 10 concentrations.
The assay plate was read using Envision (Perkin Elmer, Waltham, Mass.) at 665 nm and 590 nm (using Filter Barcode of 217#, 205#; Mirror Barcode of 446#).
Data are analyzed using Assay Data Analyzer. All ratio data (665 nm/590 nm) are back calculated according to the standard curve, resulting in Cortisol/Aldosterone concentrations. IC50 values are reported as the Inflection Point (IP) of a four parameter fit of the titration data.
The following equation was used to calculate the % inhibition:
% Activity=100×{1−(Sample_back calculated Cortisol/Aldosterone concentration−LC_back calculated Cortisol/Aldosterone concentration)/(HC_back calculated Cortisol/Aldosterone concentration−LC_back calculated Cortisol/Aldosterone concentration)}

Row | SMILES | IC50
1 | CC1CN2C[C@H](O)C[C@H]2CN1c1ncc(S(=O)(=O)N2CCN(Cc3cncn3[C@H](C)c3ccc(F)cc3)CC2)s1 (single isomer, unassigned) [Compound 22] | 1160 nM
2 | C[C@H](c1ccc(F)cc1)n1cncc1CN1CCN(S(=O)(=O)c2cnc(N3CCNCC3)s2)CC1 [Compound 1] | 1770 nM
3 | C[C@H](c1ccc(F)cc1)n1cncc1CN1CCN(S(=O)(=O)c2cnc(N3CCN(C)CC3)s2)CC1 [Compound 2] | 215 nM
4 | C[C@H](c1ccc(F)cc1)n1cncc1CN1CCN(S(=O)(=O)c2cnc(N3CCC4(CC3)CNC(=O)N4)s2)CC1 [Compound 3] | > 10000 nM
5 | C[C@H](c1ccc(C#N)cc1)n1cncc1CN1CCN(S(=O)(=O)c2cnc(Nc3ccc(C(F)(F)F)cn3)s2)CC1 [Compound 4] | 225 nM
6 | C[C@H](c1ccc(F)cc1)n1cncc1CN1CCN(S(=O)(=O)c2cnc(N3CCN4C[C@H](O)C[C@H]4C3)s2)CC1 [Compound 5] | 2000 nM
7 | C[C@H](c1ccc(F)cc1)n1cncc1CN1CCN(S(=O)(=O)c2cnc(N3CCN4C[C@H](O)C[C@@H]4C3)s2)CC1 [Compound 6] | 1560 nM
8 | C[C@H](c1ccc(F)cc1)n1cncc1CN1CCN(S(=O)(=O)c2cnc(N3CCC(S(C)(=O)=O)C3)s2)CC1 (stereo partly drawn) [Compound 8] | > 10000 nM
9 | C[C@H](c1ccc(F)cc1)n1cncc1CN1CCN(S(=O)(=O)c2cnc(N3CCN(C4CCN(C)CC4)CC3)s2)CC1 [Compound 9] | 2040 nM
10 | C[C@H](c1ccc(F)cc1)n1cncc1CN1CCN(S(=O)(=O)c2cnc(N3CCN4C[C@@H](CN)C[C@H]4C3)s2)CC1 [Compound 10] | 1910 nM
11 | C[C@H](c1ccc(F)cc1)n1cncc1CN1CCN(S(=O)(=O)c2cnc(N3CC[C@@H](N)[C@H](F)C3)s2)CC1 [Compound 11] | 1100 nM
12 | C[C@H](c1ccc(F)cc1)n1cncc1CN1CCN(S(=O)(=O)c2cnc(N3CC[C@@H]4NCCO[C@H]4C3)s2)CC1 [Compound 15] | 1710 nM
13 | C[C@H](c1ccc(F)cc1)n1cncc1CN1CCN(S(=O)(=O)c2cnc(N3CC(=O)N4C[C@H](O)C[C@H]4C3)s2)CC1 [Compound 16] | > 10000 nM
14 | C[C@H](c1ccc(F)cc1)n1cncc1CN1CCN(S(=O)(=O)c2cnc(NCC(F)CN)s2)CC1 (stereo partly drawn) [Compound 17] | > 10000 nM
15 | C[C@H](c1ccc(F)cc1)n1cncc1CN1CCN(S(=O)(=O)c2cnc(N3CCN4C[C@H](O)C[C@H]4C3=O)s2)CC1 [Compound 18] | 2590 nM
16 | C[C@H](c1ccc(F)cc1)n1cncc1CN1CCN(S(=O)(=O)c2cnc(N3CCN4C[C@H](O)CC[C@H]4C3)s2)CC1 [Compound 19] | 1850 nM
17 | C[C@H](c1ccc(F)cc1)n1cncc1CN1CCN(S(=O)(=O)c2cnc(N3CC[C@@H](N4CCOCC4)[C@H](F)C3)s2)CC1 [Compound 20] | 1020 nM

Row | SMILES | IC50
18 | C[C@H](c1ccc(F)cc1)n1cncc1CN1CCN(S(=O)(=O)c2cnc(N3C[C@@H]4C[C@@H](O)CN4C[C@@H]3C)s2)CC1 [Compound 21] | 3920 nM
19 | CC1CN(c2ncc(S(=O)(=O)N3CCN(Cc4cncn4[C@H](C)c4ccc(F)cc4)CC3)s2)C[C@@H]2C[C@@H](O)CN12 (stereo partly drawn) [Compound 23] | 1220 nM
20 | C[C@H](c1ccc(F)cc1)n1cncc1CN1CCN(S(=O)(=O)c2cnc(N3CCN4C[C@H](O)CC4(C)C3)s2)CC1 (stereo partly drawn) [Compound 24] | 4270 nM
21 | C[C@H](c1ccc(F)cc1)n1cncc1CN1CCN(S(=O)(=O)c2cnc(N3CCC(N)(CO)CC3)s2)CC1 [Compound 25] | 6930 nM
22 | C[C@H](c1ccc(F)cc1)n1cncc1CN1CCN(S(=O)(=O)c2cnc(N3CCN4C(=O)OC[C@H]4C3)s2)CC1 [Compound 26] | 3040 nM
23 | C[C@H](c1ccc(F)cc1)n1cncc1CN1CCN(S(=O)(=O)c2cnc(N3CCN4CCC(O)[C@H]4C3)s2)CC1 (stereo partly drawn) [Compound 27] | 1570 nM
24 | C[C@H](c1ccc(F)cc1)n1cncc1CN1CCN(S(=O)(=O)c2ccc(N3CCNCC3)cn2)CC1 [Compound 28] | 3550 nM
25 | C[C@H](c1ccc(F)cc1)n1cncc1CN1CCN(S(=O)(=O)c2cncc(N3CCNCC3)c2)CC1 [Compound 29] | 1440 nM
26 | C[C@H](c1ccc(F)cc1)n1cncc1CN1CCN(S(=O)(=O)c2cnc(N3CCNCC3)cn2)CC1 [Compound 30] | 4510 nM
27 | Cc1ccc(C2(n3cncc3CN3CCN(S(=O)(=O)c4cnc(N5CCN(C)CC5)s4)CC3)CC2)nc1 [Compound 31] | > 10000 nM
28 | CN1CCN(c2ncc(S(=O)(=O)N3CCN(Cc4cncn4CCOc4ccc(Cl)cc4)CC3)s2)CC1 [Compound 32] | 1580 nM
29 | CN1CCN(c2ncc(S(=O)(=O)N3CCN(Cc4cncn4CCOc4ccc(F)cn4)CC3)s2)CC1 [Compound 33] | 4750 nM
30 | CC(c1cncn1[C@H](C)c1ccc(F)cc1)N1CCN(S(=O)(=O)c2cnc(N3CCN4C[C@H](O)C[C@H]4C3)s2)CC1 (stereo partly drawn) [Compound 37] | 3810 nM
31 | C[C@H](c1ccc(F)cc1)n1cncc1C1C(=O)OCC2CN(S(=O)(=O)c3cnc(Nc4ccc(C(F)(F)F)cn4)s3)CCN21 (stereo partly drawn) [Compound 39] | 2480 nM
32 | C[C@H](c1ccc(F)cc1)n1cncc1C1COCC2CN(S(=O)(=O)c3cnc(Nc4ccccn4)s3)CCN21 (stereo partly drawn) [Compound 40] | 1150 nM
33 | C[C@H](c1ccc(F)cc1)n1cnnc1CN1CCN(S(=O)(=O)c2cnc(N3CCN4C[C@H](O)C[C@H]4C3)s2)CC1 [Compound 42] | 7800 nM
